# “And” between values parts separate entries of the source, which are not always exact repeats. Equal values may be shown once. Read-outs that look alike come from different tables or passages of the source.
# Tests used:
# [1] = target: T1, EphA2 extracellular domain fused to Fc (EphA2-Fc) (Homo sapiens, UniProt P29317); assay: ELISA: inhibition of ephrinA5-AP binding to immobilized EphA2-Fc; conditions: Table 3; inhibition of EphA2-ephrinA5 interaction; averages ± SD; read-out: ICsa (nM) by ELISA
# T1 construct: immobilized EphA2 extracellular domain fused to the Fc portion of an antibody (EphA2-Fc)
# Excerpt: FIG. 1A-1C illustrates an example of Potency and selectivity of EphA2-targeting dimeric peptides. (FIG. 1A) ELISAs comparing the ability of the peptides to inhibit binding of ephrin-A5 fused to alkaline phosphatase (ephrinA5-AP) to the immobilized EphA2 extracellular domain fused to the Fc portion of an antibody (EphA2-Fc). The graphs show averages ±SD from triplicate measurements from a representative experiment. IC50 values calculated from the fitted curves in each experiment are shown. Averages of IC50 values obtained from multiple experiments are shown in panel FIG. 1B and Table 3. The 10 nM peptide concentration is outlined in red. (FIG. 1B) Plot of the average IC50 values (listed in Table 3) for different ligands. […] (FIG. 1C) EphrinA5-AP binding to EphA receptors and ephrinB2-AP binding to EphB receptors in the presence of dimeric peptides representing each of the three configurations. Values are normalized to ephrin binding without peptide. The graphs show averages and SDs from triplicate measurements (with each measurement shown as a dot).
# [2] = Peptide solubility in PBS/H2O/DMSO; assay type: physicochemical
# Procedure: Peptide identity and purity are documented by mass spectrometry and high-performance liquid chromatography (HPLC). The peptide solubility values are determined. Concentrated peptide stocks are prepared in DMSO or H2O and stored frozen at −80° C.
# EphA2 [3] = target: T2, EphA2 (Homo sapiens, UniProt P29317); assay: EphA2 autophosphorylation on tyrosine 588 in PC3 cells (immunoblot dose-response); assay type: cell-based; set-up: EphA2 is the prevalent endogenously expressed EphA receptor in these cells; endogenous in cells; host or cells: PC3 prostate cancer cells
# Procedure: (FIG. 2A) Dose-response curves for EphA2 autophosphorylation on tyrosine 588 (pY588; purple) and for downstream inhibition of AKT phosphorylation (magenta). PC3 cells were treated for 15 min with different concentrations of the indicated peptides. […] The graphs show quantifications from multiple blots (averages ±SE; the number of experiments used to generate each curve is shown in Table 3). […] (FIG. 2B) Examples of immunoblots of lysates from PC3 cells treated with the indicated concentrations of representative ligands. […] A white vertical line indicates removal of irrelevant lanes. […] The bars show averages ±SE, and the individual measurements are shown as black dots. […] Plots of Etop versus EC50 for pY588 in FIG. 2D and for pAKT inh in FIG. 2E. Averages ±SE are shown for the peptides and ephrinA1.
# To examine the agonistic properties of the different dimeric peptide ligands, EphA2 autophosphorylation on tyrosine 588 (Y588) was measured, which is indicative of receptor activation and mediates binding of SH2 domain-containing proteins that link EphA2 to various downstream signaling pathways (FIG. 7). For these experiments, PC3 prostate cancer cells were stimulated with the dimeric peptides because EphA2 is the prevalent endogenously expressed EphA receptor in these cells, allowing comparisons with ephrins.
# EphA2 [4] = target: T2, EphA2; assay: Bias factor βlig (pY588 versus pAKT inhibition, PC3 cells, reference ephrinA1-Fc); assay type: cell-based; set-up: EphA2 is the prevalent endogenously expressed EphA receptor in these cells; endogenous in cells; host or cells: PC3 prostate cancer cells
# Procedure: FIG. 6 illustrates an example where Ligands can bias EphA2 signaling responses. The bias factor βlig was calculated for the indicated ligands using ephrinA1-Fc as the reference ligand. Statistical significance for the comparison of the different ligands with the reference ligand ephrinA1-Fc (βlig=0) was determined by one sample t test; *, P<0.05; **, P<0.01; ***, P<0.001; ****, P<0.0001.
# FIG. 14A-14E illustrates an example where distinct factors are responsible for EphA2 biased signaling induced by different ligands. (FIG. 14A) Etop values for EphA2 Y588 phosphorylation, as in FIG. 2C. (FIG. 14B) Etop values for inhibition of AKT phosphorylation. (FIG. 14C) Graph of the ratios of the Etop values for EphA2 Y588 phosphorylation and inhibition of AKT phosphorylation, which are used in the βlig calculation. (FIG. 14D) Graph of the ratios of the EC50 values for EphA2 Y588 phosphorylation and inhibition of AKT phosphorylation, which are used in the βlig calculation. (FIG. 14E) Equation used to calculate the bias factor βlig for each ligand. The terms of the equation are rearranged, compared to equation (1) in the Materials and Methods, to better conform to the graphs in FIG. 14A-14D. **, P<0.01; ***, P<0.001; ****, P<0.0001; ns, not significant for the comparison with ephrinA1-Fc by one-way ANOVA and Dunnett's posthoc test.
# The possibility of EphA2 biased signaling by analyzing the dose-response curves obtained with endogenous EphA2 in PC3 cells (FIG. 2A) was explored using approaches developed for GPCRs. This involves using EphA2 Y588 phosphorylation and AKT phosphorylation quantified as a function of ligand concentration to determine and compare the potency (EC50) and efficacy (Etop) for the two responses induced by different ligands. Remarkably, large differences among the ligands in the Etop values for Y588 phosphorylation (FIGS. 2C, 2D and 14A), but not in the Etop values for AKT inhibition (FIGS. 2E and 14B), were observed. In terms of relative efficacies for pY588 and pAKT inhibition, the C-terminally linked dimers and monomeric ligands behave differently from ephrinA1-Fc, while the N-terminally linked dimers and the head-to-tail dimer (8) are similar to ephrinA1-Fc (FIG. 14C). […] Thus, the type of linkage affects EphA2 signaling properties induced by the dimeric peptides.
# The determined EC50 and Etop values allowed us to calculate the bias factor βlig for the two different responses induced by the various ligands relative to ephrinA1-Fc as the reference ligand (FIG. 14E). […] Remarkably, the bias originates from different mechanisms that depend on the class of ligands, with the N-terminally linked and head-to-tail dimers modulating relative potencies and the C-terminally-linked dimers and monomers modulating relative efficacies.
# T2 sequence (P29317 24-976): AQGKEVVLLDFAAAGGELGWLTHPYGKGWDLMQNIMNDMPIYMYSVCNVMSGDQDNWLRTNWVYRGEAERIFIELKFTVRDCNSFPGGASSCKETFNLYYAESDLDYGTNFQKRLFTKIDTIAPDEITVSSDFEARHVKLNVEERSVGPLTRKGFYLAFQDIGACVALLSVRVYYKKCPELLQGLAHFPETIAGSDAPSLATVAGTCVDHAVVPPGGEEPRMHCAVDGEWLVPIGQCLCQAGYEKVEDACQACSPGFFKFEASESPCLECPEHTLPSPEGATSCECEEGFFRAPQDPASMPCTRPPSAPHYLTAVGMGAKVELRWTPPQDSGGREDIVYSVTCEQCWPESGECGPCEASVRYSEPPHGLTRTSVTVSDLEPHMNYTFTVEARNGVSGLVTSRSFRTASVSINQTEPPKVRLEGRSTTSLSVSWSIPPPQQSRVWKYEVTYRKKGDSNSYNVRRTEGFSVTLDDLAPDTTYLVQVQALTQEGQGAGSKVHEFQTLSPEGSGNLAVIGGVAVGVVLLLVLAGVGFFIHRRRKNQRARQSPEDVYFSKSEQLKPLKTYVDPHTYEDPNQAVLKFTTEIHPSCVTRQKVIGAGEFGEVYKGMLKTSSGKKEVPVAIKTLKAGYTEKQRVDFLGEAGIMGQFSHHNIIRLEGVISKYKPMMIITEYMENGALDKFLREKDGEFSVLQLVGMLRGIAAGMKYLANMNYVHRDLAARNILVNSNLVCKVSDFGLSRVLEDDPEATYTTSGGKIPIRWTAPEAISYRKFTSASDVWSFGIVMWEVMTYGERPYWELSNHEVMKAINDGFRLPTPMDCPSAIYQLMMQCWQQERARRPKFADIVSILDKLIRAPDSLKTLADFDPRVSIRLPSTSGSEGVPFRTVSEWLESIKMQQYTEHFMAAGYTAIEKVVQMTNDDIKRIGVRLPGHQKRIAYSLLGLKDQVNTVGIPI
# T1 sequence (P29317 24-537 limits assumed): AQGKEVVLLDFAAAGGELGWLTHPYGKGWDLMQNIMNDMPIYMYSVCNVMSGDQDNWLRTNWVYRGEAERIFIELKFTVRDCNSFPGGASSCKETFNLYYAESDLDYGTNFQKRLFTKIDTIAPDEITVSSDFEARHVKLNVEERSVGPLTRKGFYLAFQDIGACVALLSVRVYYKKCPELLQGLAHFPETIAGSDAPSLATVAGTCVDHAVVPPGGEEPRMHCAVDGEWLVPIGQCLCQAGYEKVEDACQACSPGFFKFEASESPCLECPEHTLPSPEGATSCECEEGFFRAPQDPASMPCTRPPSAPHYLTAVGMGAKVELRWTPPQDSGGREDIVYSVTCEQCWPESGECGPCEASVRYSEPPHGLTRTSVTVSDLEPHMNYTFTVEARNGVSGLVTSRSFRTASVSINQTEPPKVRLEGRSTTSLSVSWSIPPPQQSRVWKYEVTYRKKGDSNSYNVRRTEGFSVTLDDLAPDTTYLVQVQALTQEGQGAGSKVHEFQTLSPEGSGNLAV
smiles,measurement,setting,value
"CC(C)C[C@H](NC(=O)[C@H](Cc1c[nH]c2ccccc12)NC(=O)[C@H](C)NC(=O)CNC(=O)[C@@H](N)CSSC[C@H](N)C(=O)NCC(=O)N[C@@H](C)C(=O)N[C@@H](Cc1c[nH]c2ccccc12)C(=O)N[C@@H](CC(C)C)C(=O)N[C@@H](C)C(=O)N[C@@H](Cc1ccc(O)cc1)C(=O)N1CCC[C@H]1C(=O)N[C@@H](CC(=O)O)C(=O)N[C@@H](CO)C(=O)N[C@H](C(=O)N1CCC[C@H]1C(=O)N[C@@H](Cc1ccc(O)cc1)C(=O)N[C@@H](CCCNC(=N)N)C(=O)N1CCC[C@H]1C(=O)N[C@@H](CCCCN)C(=O)O)C(C)C)C(=O)N[C@@H](C)C(=O)N[C@@H](Cc1ccc(O)cc1)C(=O)N1CCC[C@H]1C(=O)N[C@@H](CC(=O)O)C(=O)N[C@@H](CO)C(=O)N[C@H](C(=O)N1CCC[C@H]1C(=O)N[C@@H](Cc1ccc(O)cc1)C(=O)N[C@@H](CCCNC(=N)N)C(=O)N1CCC[C@H]1C(=O)N[C@@H](CCCCN)C(=O)O)C(C)C [compound 5, CGA-WLA-YRPK dimer (N-ter)]",IC50,[1],0.65 nM and 0.66 nM
same,solubility,"[2]; DMSO, third of PBS/H2O/DMSO, read-out: Solubility in DMSO",15000 µg/mL
same,solubility,"[2]; PBS, Table 4, first of PBS/H20/DMSO, read-out: Solubility in PBS",5000 µg/mL
same,solubility,"[2]; PBS, first of PBS/H2O/DMSO, read-out: Solubility in PBS",5000 µg/mL
same,solubility,"[2]; water, Table 4, second of PBS/H20/DMSO, read-out: Solubility in H20",5000 µg/mL
same,solubility,"[2]; water, second of PBS/H2O/DMSO, read-out: Solubility in H2O",5000 µg/mL
same,Etop pY588,"EphA2 [3]; Table 3, 15 min, saturating ligand, pY588/EphA2 normalized to ephrinA1-Fc",0.87 ± 0.04
same,Emax PY588,EphA2 [3]; ephrinA1Fc = 1.00,0.78 ± 0.025
same,EC50,EphA2 [3]; read-out: EC50 PY588,0.53 ± 0.07 nM
same,βu (bias factor βlig),"EphA2 [4]; Table 3, reference ligand ephrinA1-Fc (βlig=0)",066 ± 0.12
same,Blig,"EphA2 [4]; bias factor, reference ligand ephrinA1Fc",0.81 ± 0.09
